# Measured values: patent publication US9283198B2, “Materials and methods for treating viral infections” (priority 2005, dated 2016)
# Structures can show the parent of a compound that is named as a salt. Where two headings read alike, the source gives them in different places.
# Tests used:
# [1] = system: H5N1 avian influenza viruses CV strain; assay: animal or person; format: in vivo, H5N1 avian influenza virus; conditions: for IC50: Influenza A virus
# [2] = system: H5N1 avian influenza virus, WV strain; conditions: in vivo, po
# embryonated hen eggs = conditions: in vivo
# influenza virus = conditions: in vivo, po
# [3] = H5N1, read-out: IC50 against H5N1 avian influenza virus
SMILES,"IC50 ([1]; H5N1, read-out: IC50 (drug concentration required to survive 50% embryo)) [mg/mL]","IC50 [1, 3] [mg/mL]",protection rate in mice [2] [%],IC50 against H5N1 avian influenza virus ([1]; in vivo) [mg/mL],LD50 of TG21 to embryonated hen eggs (embryonated hen eggs; chicken (hen) embryo) [mg/mL],dose below which no side-effect was found (embryonated hen eggs; chicken (hen) embryo),toxicity at high doses (embryonated hen eggs),time until symptoms associated with the influenza infection had disappeared (influenza virus) [h]
"CCOC(=O)C1=C[C@@H](OC(CC)CC)[C@H](NC(C)=O)[C@@H](N)C1 [TAMIFLU®, oseltamivir phosphate, reference compound]",25.1,19.4,60,–,–,–,–,–
"NCCS [TG21, Cysteamine]",–,17.5,–,16.1,32.1,below 12.5 mg/mL,some toxicity was detected,–
NCCS [cysteamine hydrochloride],–,–,–,–,–,–,–,≤ 24
